Test results reported in patent US5286492A, “Method of treatment of Heliobacter pylori infections with triclosan” (Reckitt & Colman Products Limited, priority 1990, dated 1994).
Values after ≈ are worked out from the molar mass of the structure shown. Like-named read-outs stand apart in the source and are kept apart here.

Legend:
[1] = test system: Helicobacter pylori infection; conditions: by twelve months post therapy; cited from earlier work
Helicobacter pylori [2] = assay: MIC50/MIC90 versus Helicobacter pylori by agar dilution technique at neutral pH; format: cell-based; conditions: for activity compared with the twelve agents tested: Table 1
Description: (§1) The in vitro activities of a range of antimicrobial compounds versus Helicobacter pylori were determined by methods based on those of McNulty et al (Antimicrobial Agents and Chemotherapy, 28, 837-838, 1985). The Minimum Inhibitory concentrations for 50% and 90% of the strains used (MIC50 and MIC90), versus each antimicrobial were determined using an agar dilution technique.
(§2) The MIC of an antimicrobial agent was defined as that concentration (in mg per liter of agar) at which less than 1 in 10^5 organisms produced visible colonies.
(§3) Helicobacter pylori strains were isolated from gastric antrum biopsy specimens taken at routine endoscopy during investigation of upper gastrointestinal symptoms. They were identified as Helicobacter pylori by their colonial morphology, gram stain appearance and positive rapid urease test. The organisms were stored in liquid nitrogen before use and subcultured for testing by 48 hour incubation, at 37° C. under 10% carbon dioxide in Tryptone Soya Broth (TSB, OXOID, UK) plus 5% horse serum (Tissue Culture Services, UK).
The first test procedure determined the effectiveness of a range of antimicrobial substances versus 16 to 18 strains of Helicobacter pylori at neutral pH. Freshly prepared Isosensitest Agar of pH 7.2 (Oxoid, UK) supplemented with 10% saponinlysed horse blood was used to prepare a dilution series of each antimicrobial from which agar plates were produced. A multipoint inoculator (Denley-Tech, UK) was used to deliver 1 µl of undiluted test culture to the surface of each plate in the dilution series to give approximately 10^6 cfu/spot. The plates were incubated for three days at 37° C. in a microaerobic atmosphere of 6% oxygen and 10% carbon dioxide.

Helicobacter pylori [3] = assay: Effect of pH (5 to 8) on activity (MIC90) against Helicobacter pylori, agar dilution; format: cell-based; conditions: for MIC / MIC90: Helicobacter pylori; for activity compared among the three agents (in words) / effect of pH on activity (in words): pH range 5 to 8
Description: as §1, §2, §3
The three selected agents were triclosan, clioquinol (5-chloro-7-iodo-8-hydroxy-quinolone) and cetalkonium chloride.
In the test procedure, Sorensens phosphate buffer (0.1M) was used to prepare the range of pH values 5, 5.5, 6, 6.5, 7, 7.5 and 8. Oxoid Columbia Agar Base (CM331) was added and the media autoclaved. After cooling to 50° C., 7% Lysed Horse Blood (Tissue Culture Services, UK) was added and media at each pH was used to prepare a range of concentrations of the three selected test antimicrobial agents. To ensure pH stability, a surface pH electrode was used to monitor control plates before, during and at the end of the three day microaerobic incubation.
The MIC90 was determined for each at each pH as described in the previous test procedure.

Helicobacter pylori [4] = conditions: cited from earlier work
[5] = Helicobacter pylori, 72 h, eighteen isolates, neutral pH (agar pH 7.2), read-out: MIC50
[6] = Helicobacter pylori, eighteen isolates, neutral pH (agar pH 7.2), read-out: MIC90
[7] = Helicobacter pylori, eighteen isolates, neutral pH (agar pH 7.2), read-out: MIC Range
[8] = eighteen isolates, neutral pH (agar pH 7.2)
[9] = pH 5.0, sixteen isolates (triclosan, clioquinol) or eighteen (cetalkonium chloride), read-out: MIC90
[10] = pH 5.0, sixteen isolates (triclosan, clioquinol) or eighteen (cetalkonium chloride), read-out: MIC Range
[11] = pH 5.5, sixteen isolates (triclosan, clioquinol) or eighteen (cetalkonium chloride), read-out: MIC90
[12] = pH 5.5, sixteen isolates (triclosan, clioquinol) or eighteen (cetalkonium chloride), read-out: MIC Range
[13] = pH 6.0, sixteen isolates (triclosan, clioquinol) or eighteen (cetalkonium chloride), read-out: MIC90
[14] = pH 6.0, sixteen isolates (triclosan, clioquinol) or eighteen (cetalkonium chloride), read-out: MIC Range
[15] = pH 6.5, sixteen isolates (triclosan, clioquinol) or eighteen (cetalkonium chloride), read-out: MIC90
[16] = pH 7.0, sixteen isolates (triclosan, clioquinol) or eighteen (cetalkonium chloride), read-out: MIC90
[17] = pH 7.0, sixteen isolates (triclosan, clioquinol) or eighteen (cetalkonium chloride), read-out: MIC Range
[18] = pH 7.5, sixteen isolates (triclosan, clioquinol) or eighteen (cetalkonium chloride), read-out: MIC90
[19] = pH 7.5, sixteen isolates (triclosan, clioquinol) or eighteen (cetalkonium chloride), read-out: MIC Range
[20] = pH 8.0, sixteen isolates (triclosan, clioquinol) or eighteen (cetalkonium chloride), read-out: MIC90
[21] = Helicobacter pylori, pH 7.2, read-out: MIC Range

bismuth
recurrence of the infection [1]: ~100%

Cc1cc(O)cc(C)c1Cl [PCMX]
MIC50 (Helicobacter pylori [2]; [5]): 32 µg/mL (≈ 204 µM)
MIC90 (Helicobacter pylori [2]; [6]): 64 µg/mL (≈ 409 µM)
MIC (Helicobacter pylori [2]; [7]): 8 to 64 µg/mL (≈ 51.1 to 409 µM)

COc1ccccc1O [Guaiacol]
MIC50 (Helicobacter pylori [2]; [5]): 64 µg/mL (≈ 516 µM)
MIC90 (Helicobacter pylori [2]; [6]): 64 µg/mL (≈ 516 µM)
MIC (Helicobacter pylori [2]; [7]): 32 to 128 µg/mL (≈ 258 to 1030 µM)

Halquinol
MIC50 (Helicobacter pylori [2]; [8]): 16 µg/mL
MIC90 (Helicobacter pylori [2]; [8]): 16 µg/mL
MIC Range (Helicobacter pylori [2]; [8]): 16 µg/mL

CCS(=O)(=O)CCn1c([N+](=O)[O-])cnc1C [Tinidazole]
MIC50 (Helicobacter pylori [2]; [5]): 0.5 µg/mL (≈ 2.02 µM)
MIC (Helicobacter pylori [2]; Helicobacter pylori, 72 h, fifteen of eighteen isolates, neutral pH, read-out: MIC of sensitive isolates): < 2 µg/mL
MIC (Helicobacter pylori [2]; Helicobacter pylori, 72 h, three of eighteen strains, neutral pH, read-out: MIC of strains demonstrating evidence of resistance): 16 µg/mL
MIC90 (Helicobacter pylori [2]; [6]): 16 µg/mL (≈ 64.7 µM)
MIC (Helicobacter pylori [2]; [7]): 0.25 to 16 µg/mL (≈ 1.01 to 64.7 µM)
distribution of MICs (Helicobacter pylori [2]; eighteen isolates, neutral pH): bimodal distribution of MICs
activity compared with the twelve agents tested (Helicobacter pylori [2]; neutral pH): demonstrated the greatest activity of the twelve antimicrobial agents tested

N=C(NCCCCCCNC(=N)NC(=N)Nc1ccc(Cl)cc1)NC(=N)Nc1ccc(Cl)cc1 [Hibitane]
MIC50 (Helicobacter pylori [2]; [5]): 32 µg/mL (≈ 63.3 µM)
MIC90 (Helicobacter pylori [2]; [6]): 32 µg/mL (≈ 63.3 µM)
MIC (Helicobacter pylori [2]; [7]): 16 to 32 µg/mL (≈ 31.7 to 63.3 µM)

CCCCCCCCCCCCCCCC[N+](C)(C)Cc1ccccc1 [Cetalkonium Cl]
MIC (Helicobacter pylori [3]; pH 8, read-out: MIC Range): 1 to 8 µg/mL
MIC90 (Helicobacter pylori [3]; [9]): 1 µg/mL
MIC (Helicobacter pylori [3]; [10]): 0.5 to 2 µg/mL
MIC90 (Helicobacter pylori [3]; [11]): 2 µg/mL
MIC (Helicobacter pylori [3]; [12]): 0.5 to 2 µg/mL
MIC90 (Helicobacter pylori [3]; [13]): 2 µg/mL
MIC (Helicobacter pylori [3]; [14]): 1 to 4 µg/mL
MIC90 (Helicobacter pylori [3]; [15]): 4 µg/mL
MIC (Helicobacter pylori [3]; pH 6.5, sixteen isolates (triclosan, clioquinol) or eighteen (cetalkonium chloride), read-out: MIC Range): 2 to 4 µg/mL
MIC90 (Helicobacter pylori [3]; [16]): 4 µg/mL
MIC (Helicobacter pylori [3]; [17]): 2 to 4 µg/mL
MIC90 (Helicobacter pylori [3]; [18]): 4 µg/mL
MIC (Helicobacter pylori [3]; [19]): 1 to 4 µg/mL
MIC90 (Helicobacter pylori [3]; [20]): 2 µg/mL
activity compared among the three agents (in words) (Helicobacter pylori [3]): demonstrated similar MIC90 activity profiles across the pH range
effect of pH on activity (in words) (Helicobacter pylori [3]): largely unaffected by pH over the range 5 to 8
MIC50 (Helicobacter pylori [2]; [5]): 2 µg/mL
MIC (Helicobacter pylori [2]; [21]): 2 to 4 µg/mL
MIC90 (Helicobacter pylori [2]; [6]): 4 µg/mL

Cc1ncc([N+](=O)[O-])n1CCO [metronidazole]
distribution of MICs (previously reported) (Helicobacter pylori [4]): bimodal distribution

Oc1ccc(Cl)cc1Cc1cc(Cl)ccc1O [Dichlorphen]
MIC50 (Helicobacter pylori [2]; [5]): 16 µg/mL (≈ 59.5 µM)
MIC90 (Helicobacter pylori [2]; [6]): 16 µg/mL (≈ 59.5 µM)
MIC (Helicobacter pylori [2]; [7]): 8 to 16 µg/mL (≈ 29.7 to 59.5 µM)

Oc1cc(Cl)ccc1Oc1ccc(Cl)cc1Cl [Triclosan, 2-hydroxy-4,2',4'-trichloro-diphenyl ether]
MIC90 (Helicobacter pylori [3]; pH 5): 0.25 µg/mL (≈ 0.863 µM)
MIC (Helicobacter pylori [3]; pH 5, read-out: MIC Range): 0.06 to 0.25 µg/mL (≈ 0.207 to 0.863 µM)
MIC90 (Helicobacter pylori [3]; pH 5.5): 1 µg/mL (≈ 3.45 µM)
MIC (Helicobacter pylori [3]; pH 5.5, read-out: MIC Range): 0.06 to 1 µg/mL (≈ 0.207 to 3.45 µM)
MIC90 (Helicobacter pylori [3]; pH 6): 1 µg/mL (≈ 3.45 µM)
MIC (Helicobacter pylori [3]; pH 6, read-out: MIC Range): 0.12 to 2 µg/mL (≈ 0.414 to 6.91 µM)
MIC90 (Helicobacter pylori [3]; pH 6.5): 2 µg/mL (≈ 6.91 µM)
MIC (Helicobacter pylori [3]; pH 6.5, read-out: MIC Range): 0.12 to 4 µg/mL (≈ 0.414 to 13.8 µM)
MIC90 (Helicobacter pylori [3]; pH 7): 2 µg/mL (≈ 6.91 µM)
MIC (Helicobacter pylori [3]; pH 7, read-out: MIC Range): 0.06 to 4 µg/mL (≈ 0.207 to 13.8 µM)
MIC90 (Helicobacter pylori [3]; pH 7.5): 2 µg/mL (≈ 6.91 µM)
MIC (Helicobacter pylori [3]; pH 7.5, read-out: MIC Range): 0.06 to 4 µg/mL (≈ 0.207 to 13.8 µM)
MIC90 (Helicobacter pylori [3]; pH 8): 2 µg/mL (≈ 6.91 µM)
MIC (Helicobacter pylori [3]; pH 8, read-out: MIC Range): 0.06 to 2 µg/mL (≈ 0.207 to 6.91 µM)
activity compared among the three agents (in words) (Helicobacter pylori [3]): demonstrated the greatest activity
effect of pH on activity (in words) (Helicobacter pylori [3]): low at pH 5.0 and unaffected in the range pH 5.5 to 8.0
MIC50 (Helicobacter pylori [2]; Helicobacter pylori, 72 h, pH 7.2): 1 µg/mL (≈ 3.45 µM)
MIC90 (Helicobacter pylori [2]; Helicobacter pylori, pH 7.2): 8 µg/mL (≈ 27.6 µM)
MIC (Helicobacter pylori [2]; [21]): 0.25 to 16 µg/mL (≈ 0.863 to 55.3 µM)
activity compared with the twelve agents tested (Helicobacter pylori [2]; neutral pH): demonstrated the greatest activity of the twelve antimicrobial agents tested

Oc1c(I)cc(Cl)c2cccnc12 [Clioquinol, 5-chloro-7-iodo-8-hydroxy-quinolone]
MIC (Helicobacter pylori [3]; pH 6.5, read-out: MIC Range): 0.5 to 16 µg/mL (≈ 1.64 to 52.4 µM)
MIC (Helicobacter pylori [3]; pH 8, read-out: MIC Range): 0.5 to 2 µg/mL (≈ 1.64 to 6.55 µM)
MIC90 (Helicobacter pylori [3]; [9]): 2 µg/mL (≈ 6.55 µM)
MIC (Helicobacter pylori [3]; [10]): 0.5 to 4 µg/mL (≈ 1.64 to 13.1 µM)
MIC90 (Helicobacter pylori [3]; [11]): 8 µg/mL (≈ 26.2 µM)
MIC (Helicobacter pylori [3]; [12]): 2 to 8 µg/mL (≈ 6.55 to 26.2 µM)
MIC90 (Helicobacter pylori [3]; [13]): 8 µg/mL (≈ 26.2 µM)
MIC (Helicobacter pylori [3]; [14]): 2 to 8 µg/mL (≈ 6.55 to 26.2 µM)
MIC90 (Helicobacter pylori [3]; [15]): 8 µg/mL (≈ 26.2 µM)
MIC90 (Helicobacter pylori [3]; [16]): 2 µg/mL (≈ 6.55 µM)
MIC (Helicobacter pylori [3]; [17]): 0.5 to 4 µg/mL (≈ 1.64 to 13.1 µM)
MIC90 (Helicobacter pylori [3]; [18]): 2 µg/mL (≈ 6.55 µM)
MIC (Helicobacter pylori [3]; [19]): 0.5 to 4 µg/mL (≈ 1.64 to 13.1 µM)
MIC90 (Helicobacter pylori [3]; [20]): 1 µg/mL (≈ 3.27 µM)
MIC50 (Helicobacter pylori [2]; [5]): 16 µg/mL (≈ 52.4 µM)
MIC (Helicobacter pylori [2]; [21]): 8 to 16 µg/mL (≈ 26.2 to 52.4 µM)
MIC90 (Helicobacter pylori [2]; [6]): 16 µg/mL (≈ 52.4 µM)

O=C([O-])CC(O)(CC(=O)[O-])C(=O)[O-].O=C([O-])CC(O)(CC(=O)[O-])C(=O)[O-].[Bi+3].[K+].[K+].[K+] [bismuth subcitrate]
reported MIC90 (Helicobacter pylori [4]; neutral pH): 16 µg/mL

CCCCCCc1ccc(O)cc1O [4-Hexylresorcinol]
MIC50 (Helicobacter pylori [2]; [5]): 32 µg/mL (≈ 165 µM)
MIC90 (Helicobacter pylori [2]; Helicobacter pylori, pH 7.2): 32 µg/mL (≈ 165 µM)
MIC (Helicobacter pylori [2]; [7]): 16 to 32 µg/mL (≈ 82.4 to 165 µM)

CCCCC(CC)CN1CN(CC(CC)CCCC)CC(C)(N)C1 (stereo not drawn) [Hexetidine]
MIC50 (Helicobacter pylori [2]; [5]): 16 µg/mL (≈ 47.1 µM)
MIC90 (Helicobacter pylori [2]; [6]): 16 µg/mL (≈ 47.1 µM)
MIC (Helicobacter pylori [2]; [7]): 8 to 16 µg/mL (≈ 23.6 to 47.1 µM)
